Measurements from PMC11509018, “Evaluation of the Role of Tanshinone I in an In Vitro System of Charcot-Marie-Tooth Disease Type 2N” (International Journal of Molecular Sciences, 2024).
Where a chain is given by its changes, count along the chain named.

What was measured:
AlaRS^R326W = target: T1, AlaRS^R326W (Homo sapiens, UniProt P49588, R326W); test: Proteolytic digestion assay (trypsin, SDS-PAGE); conditions: three hours
T1 construct: made in house; host or cells: E. coli BL21 (DE3), pET-21a
T1 sequence (P49588 1-968 R326W): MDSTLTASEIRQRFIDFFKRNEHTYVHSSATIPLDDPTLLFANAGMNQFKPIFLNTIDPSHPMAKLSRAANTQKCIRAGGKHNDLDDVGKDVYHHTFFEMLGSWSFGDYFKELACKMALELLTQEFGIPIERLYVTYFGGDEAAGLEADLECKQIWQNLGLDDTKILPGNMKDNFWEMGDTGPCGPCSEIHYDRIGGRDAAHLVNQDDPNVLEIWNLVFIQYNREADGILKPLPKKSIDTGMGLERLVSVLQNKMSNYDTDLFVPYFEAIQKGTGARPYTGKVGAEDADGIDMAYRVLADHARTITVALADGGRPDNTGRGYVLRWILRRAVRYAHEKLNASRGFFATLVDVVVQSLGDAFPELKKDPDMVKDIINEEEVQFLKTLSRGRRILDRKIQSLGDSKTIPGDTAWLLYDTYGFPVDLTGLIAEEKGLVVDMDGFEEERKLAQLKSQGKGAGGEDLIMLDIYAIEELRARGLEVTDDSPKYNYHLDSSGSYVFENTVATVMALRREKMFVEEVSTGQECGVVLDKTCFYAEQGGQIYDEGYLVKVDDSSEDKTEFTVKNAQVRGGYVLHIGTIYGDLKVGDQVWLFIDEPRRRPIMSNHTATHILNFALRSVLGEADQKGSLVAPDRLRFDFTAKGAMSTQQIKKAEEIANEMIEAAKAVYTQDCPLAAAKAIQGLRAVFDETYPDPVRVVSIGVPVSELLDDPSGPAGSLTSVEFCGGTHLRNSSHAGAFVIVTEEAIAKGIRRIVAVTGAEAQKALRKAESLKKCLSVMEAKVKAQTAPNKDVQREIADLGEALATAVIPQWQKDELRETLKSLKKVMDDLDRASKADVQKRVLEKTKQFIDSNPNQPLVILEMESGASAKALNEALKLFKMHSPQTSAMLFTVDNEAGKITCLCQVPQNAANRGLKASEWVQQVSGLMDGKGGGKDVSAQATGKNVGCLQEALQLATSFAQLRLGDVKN
Excerpt: (§1) Furthermore, we examined the interaction of Tanshinone I with additional AlaRS CMT mutants capable of binding to Nrp1 and causing conformational changes by BLI and proteolysis assays on additional related mutants.
(§2) Figure 5 BLI and proteolytic digestion assay of AlaRS mutants with Tanshinone I. Binding sensorgrams for the interaction of Tanshinone I with immobilized AlaRS^R329H (A), AlaRS^G102R (C), AlaRS^R326W (E), and AlaRS^E337K (G). Each sensorgram contains five curves generated from five different concentrations. The KD values are presented as the mean ± SD and experiments were performed in triplicate. The AlaRS^N71Y (B), AlaRS^G102R (D), AlaRS^R326W (F), and AlaRS^E337K (H) proteins (in the presence and absence of Tanshinone I) were incubated with trypsin at different concentrations for three hours before the reactions were quenched, and the products were separated by SDS-PAGE.

AlaRS^N71Y = target: T2, AlaRS^N71Y (Homo sapiens, UniProt P49588, N71Y); test: Proteolytic digestion assay (trypsin, SDS-PAGE); conditions: three hours
T2 construct: made in house; host or cells: E. coli BL21 (DE3), pET-21a
T2 sequence (P49588 1-968 N71Y): T1 sequence (P49588 1-968 R326W) with N71Y, W326R
Excerpt: as §1, §2

**Q.** `Cc1coc2c1C(=O)C(=O)c1c-2ccc2c(C)cccc12` [Tanshinone I] was tested. Which “Effect on proteolytic fragments / conformation” value (AlaRS^R326W) did it give?
**A.** Its value is “distinct proteolytic fragments after Tanshinone I treatment”.

**Q.** What about the “Effect on proteolytic fragments / conformation” value (AlaRS^N71Y) of the same compound?
**A.** The value was “significant conformational change”.
